From PMC8863071, “Functional Analysis of H^+-Pumping Membrane-Bound Pyrophosphatase, ADP-Glucose Synthase, and Pyruvate Phosphate Dikinase as Pyrophosphate Sources in Clostridium thermocellum” (Applied and Environmental Microbiology, 2022)

Target: T1, ADP-glucose synthase (Ags; ags1 ags2) (Acetivibrio thermocellus, UniProt A3DK82)
T1 construct: gene glgC; both subunits co-expressed untagged from pTrc99a (pTK30) in E. coli BL21; cell extract
T1 sequence (A3DK82 1-426): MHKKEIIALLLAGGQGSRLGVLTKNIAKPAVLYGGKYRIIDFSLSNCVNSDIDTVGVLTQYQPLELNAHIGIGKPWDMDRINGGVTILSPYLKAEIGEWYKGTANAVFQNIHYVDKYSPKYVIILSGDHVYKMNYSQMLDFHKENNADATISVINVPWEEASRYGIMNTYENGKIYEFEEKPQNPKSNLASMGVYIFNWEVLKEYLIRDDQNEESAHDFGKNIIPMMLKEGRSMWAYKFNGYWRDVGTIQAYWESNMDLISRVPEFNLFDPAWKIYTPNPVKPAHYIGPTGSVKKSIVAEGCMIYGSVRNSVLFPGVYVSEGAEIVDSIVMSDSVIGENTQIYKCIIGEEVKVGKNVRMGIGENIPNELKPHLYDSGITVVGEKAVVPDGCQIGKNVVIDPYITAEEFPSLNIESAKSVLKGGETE
T1 sequence (A3DK83 1-373 partner): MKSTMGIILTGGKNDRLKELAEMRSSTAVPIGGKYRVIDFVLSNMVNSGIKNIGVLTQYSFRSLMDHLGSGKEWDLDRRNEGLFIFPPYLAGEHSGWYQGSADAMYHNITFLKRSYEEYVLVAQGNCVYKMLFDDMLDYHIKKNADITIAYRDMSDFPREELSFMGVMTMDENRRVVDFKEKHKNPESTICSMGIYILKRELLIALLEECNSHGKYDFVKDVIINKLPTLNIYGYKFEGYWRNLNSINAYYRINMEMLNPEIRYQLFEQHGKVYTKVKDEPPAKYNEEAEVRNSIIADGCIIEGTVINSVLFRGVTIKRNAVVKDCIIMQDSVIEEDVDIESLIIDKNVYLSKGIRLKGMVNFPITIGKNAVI
Test: coupled NADP+ assay, pyrophosphorolysis direction
Format: biochemical
Settings: 1 mM ADP-glucose, 1 mM PPi, 4 mM MgCl2, 2 mM fructose-1,6-bisphosphate, pH 7.5, 55°C

SMILES: Nc1ncnc2c1ncn2[C@@H]1O[C@H](COP(=O)(O)OP(=O)(O)O[C@H]2O[C@H](CO)[C@@H](O)[C@H](O)[C@H]2O)[C@@H](O)[C@H]1O [ADP-glucose]
- coupled NADP+ assay, pyrophosphorolysis direction: the activity was found to be ADP-glucose dependent
